Measurements published in patent US20240092835A1, “NOVEL PEPTIDES CAPABLE OF ALTERING NK CELL ACTIVITY” (Massachusetts Institute of Technology, priority 2022, published 2024).
Where no end group is shown, it is not given here.

Key:
[1] = tested on: NKG2A−/NKG2C+ NK cells; assay: NK cell activation markers in NKG2A-/NKG2C+ NK cells incubated with peptide and K562 expressing HLA-E (activation); type: cell-based, human; details: for effect on NKG2A−/NKG2C+ NK cell activation (in words): K562 expressing HLA-E, CD107a, IFNG, TNF, CCL3; for percentage of CCL3+ NK cells / percentage of CD107+ NK cells / percentage of IFNG+ NK cells / percentage of TNF+ NK cells: NKG2A-/NKG2C+ NK cells, K562/HLA-E
In short: (§1)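 Read-out: % NK cells positive for surface activation markers; a rise indicates activation, a fall indicates inhibition. Targets were K562 cells expressing HLA-E, loaded with human- or HCMV-proteome-derived peptides.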

[2] = tested on: NKG2A−/NKG2C− NK cells; assay: NK cell activation markers in control NKG2A-/NKG2C- NK cells incubated with peptide and K562 expressing HLA-E; type: cell-based, human
In short: as §1

[3] = target: T1, HLA-E (Homo sapiens, UniProt P13747); assay: HLA-E surface stabilization assay with RMA-S/HLA-E cells; type: cell-based; details: 30 μM peptide, 16 hours; for HLA-E surface expression stability (GeoMFI): anti-HLA-E antibody
T1 construct: expressed in transfected cells; host or cells: RMA-S/HLA-E cells (antigen processing-defective lymphoma cell line)
Description: HLA-E surface expression was assessed by measuring geometric mean fluorescence intensity (GeoMFI) in RMA-S cells following immunofluorescence staining with an anti-HLA-E antibody (Table 14). Increased GeoMFI was indicative of increased HLA-E surface expression stability following novel peptide exposures (FIG. 3).

[4] = target: CD94/NKG2A (Homo sapiens, UniProt P26715+Q13241); assay: Steady-state surface plasmon resonance of peptide-HLA-E complex with CD94/NKG2A; type: binding; details: for Binding of peptide-HLA-E complexes to CD94/NKG2A normalized to a theoretical Rmax: steady-state SPR
Description: (§2) Binding affinity of novel peptides linked to HLA-E was determined using surface plasmon resonance (SPR), a methodology used to study protein-protein interactions (Tables 15-19). The peptide-HLA-E complex (generated as a single chain trimer) was immobilized on the sensor chip surface and CD94/NKG2A or CD94/NKG2C were flowed over. Steady-state surface plasmon resonance experiments were performed with a Biacore T200 instrument. CD94/NKG2x in HBS-EP+ buffer was injected as analyte in a concentration range of 0.1 μM to 102.4 μM and flow rate of 10 μL/min at 25° C. Data was fit with Prism 9.4 (GraphPad Software Inc; San Diego CA) to a “one site, specific binding” model. Series S CM5 chips were coupled to neutravidin and utilized. Biotinylated pMHC was immobilized at approximately 400 RU. KD values calculated by Biacore software are reported. Rmax, fit values were calculated by Biacore software. Rmax, theoretical values were calculated using the analyte/ligand mass ratio (0.66) multiplied by the amount of ligand coupled to the chip.

[5] = target: CD94/NKG2C (Homo sapiens, UniProt P26717+Q13241); assay: Steady-state surface plasmon resonance of peptide-HLA-E complex with CD94/NKG2C; type: binding; details: for Binding of peptide-HLA-E complexes to CD94/NKG2C normalized to a theoretical Rmax: steady-state SPR
Description: as §2

Sequence of CD94/NKG2C (P26717 94-231 limits assumed): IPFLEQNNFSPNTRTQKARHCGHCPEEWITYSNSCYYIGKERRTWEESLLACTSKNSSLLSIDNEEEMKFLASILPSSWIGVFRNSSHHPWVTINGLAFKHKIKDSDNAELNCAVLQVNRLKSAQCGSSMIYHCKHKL
Sequence of CD94/NKG2C (Q13241 32-179 limits assumed): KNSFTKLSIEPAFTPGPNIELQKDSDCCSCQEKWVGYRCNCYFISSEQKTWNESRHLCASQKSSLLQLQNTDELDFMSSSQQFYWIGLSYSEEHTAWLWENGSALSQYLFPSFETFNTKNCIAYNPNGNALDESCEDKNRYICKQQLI
Sequence of CD94/NKG2A (P26715 94-233 limits assumed): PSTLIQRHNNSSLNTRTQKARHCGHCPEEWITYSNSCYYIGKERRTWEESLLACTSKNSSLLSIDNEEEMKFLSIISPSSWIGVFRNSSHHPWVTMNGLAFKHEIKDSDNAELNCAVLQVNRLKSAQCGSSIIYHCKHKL
Sequence of CD94/NKG2A (Q13241 32-179 limits assumed): as the sequence (Q13241 32-179 limits assumed) above
T1 sequence (P13747 22-358): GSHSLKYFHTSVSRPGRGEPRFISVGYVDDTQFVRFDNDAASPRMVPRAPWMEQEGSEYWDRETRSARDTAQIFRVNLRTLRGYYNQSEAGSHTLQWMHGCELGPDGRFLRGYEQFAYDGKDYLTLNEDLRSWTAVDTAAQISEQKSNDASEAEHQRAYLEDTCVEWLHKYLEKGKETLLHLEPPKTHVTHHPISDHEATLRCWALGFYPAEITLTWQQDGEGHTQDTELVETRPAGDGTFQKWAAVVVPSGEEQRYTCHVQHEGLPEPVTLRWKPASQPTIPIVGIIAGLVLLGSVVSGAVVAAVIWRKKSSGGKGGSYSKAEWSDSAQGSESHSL
T1 sequence (P61769 21-119 partner): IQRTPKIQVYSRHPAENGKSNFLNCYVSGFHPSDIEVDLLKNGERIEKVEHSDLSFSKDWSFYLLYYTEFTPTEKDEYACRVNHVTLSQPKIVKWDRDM

## QMPSRSLLF [human1, QMPSRSLLF]
[1]; listed as SEQ ID NO. 7
  effect on NKG2A−/NKG2C+ NK cell activation (in words): strong activating effects
[1]; listed as h1
  effect on NKG2A−/NKG2C+ NK cell activation (in words): strong inhibitory and activating effects
[1]; Trial 1
  percentage of CCL3+ NK cells: 78.3%
  percentage of CD107+ NK cells: 74.8%
  percentage of IFNG+ NK cells: 62.6%
  percentage of TNF+ NK cells: 51.1%
[1]; Trial 2
  percentage of CCL3+ NK cells: 91.5%
  percentage of CD107+ NK cells: 87.4%
  percentage of IFNG+ NK cells: 84.1%
  percentage of TNF+ NK cells: 75.2%
[1]; Trial 3
  percentage of CCL3+ NK cells: 86.6%
  percentage of CD107+ NK cells: 87%
  percentage of IFNG+ NK cells: 80.5%
  percentage of TNF+ NK cells: 72.9%
[1]; Trial 4
  percentage of CCL3+ NK cells: 68.1%
  percentage of CD107+ NK cells: 68.2%
  percentage of IFNG+ NK cells: 58.1%
  percentage of TNF+ NK cells: 51.6%
[1]; Trial 5
  percentage of CCL3+ NK cells: 79.1%
  percentage of CD107+ NK cells: 75.8%
  percentage of IFNG+ NK cells: 66.9%
  percentage of TNF+ NK cells: 64%
[1]; Trial 6
  percentage of CCL3+ NK cells: 61.1%
  percentage of CD107+ NK cells: 57.6%
  percentage of IFNG+ NK cells: 46.7%
  percentage of TNF+ NK cells: 38.8%
[2]; Trial 1
  percentage CCL3+ NK cells: 37%
  percentage CD107+ NK cells: 25.1%
  percentage TNF+ NK cells: 4.84%
  percentage of IFNG+ NK cells: 16.2%
[2]; Trial 2
  percentage CCL3+ NK cells: 59.6%
  percentage CD107+ NK cells: 37.6%
  percentage TNF+ NK cells: 11.3%
  percentage of IFNG+ NK cells: 29.3%
[2]; Trial 3
  percentage CCL3+ NK cells: 51.3%
  percentage CD107+ NK cells: 47.2%
  percentage TNF+ NK cells: 19%
  percentage of IFNG+ NK cells: 38.5%
[2]; Trial 4
  percentage CCL3+ NK cells: 33.1%
  percentage CD107+ NK cells: 29.5%
  percentage TNF+ NK cells: 9.26%
  percentage of IFNG+ NK cells: 18.6%
[2]; Trial 5
  percentage CCL3+ NK cells: 26%
  percentage CD107+ NK cells: 19.8%
  percentage TNF+ NK cells: 6.91%
  percentage of IFNG+ NK cells: 15.9%
[2]; Trial 6
  percentage CCL3+ NK cells: 24.1%
  percentage CD107+ NK cells: 18.8%
  percentage TNF+ NK cells: 3.78%
  percentage of IFNG+ NK cells: 7.82%
[3]
  HLA-E surface expression stabilization strength (in words): moderate
[3]; Trial 1
  HLA-E surface expression stability (GeoMFI): 2461 GeoMFI
[3]; Trial 2
  HLA-E surface expression stability (GeoMFI): 1755 GeoMFI
[3]; Trial 3
  HLA-E surface expression stability (GeoMFI): 2273 GeoMFI
[3]; Trial 4
  HLA-E surface expression stability (GeoMFI): 2496 GeoMFI
[3]; approximate value
  HLA-E surface expression stabilization strength, approximate GeoMFI: approximately 2×10^3 GeoMFI
[4]; CD94/NKG2A concentration 0 μM
  binding of peptide-HLA-E complex to CD94/NKG2A normalized to a fitted Rmax: −0.006
[4]; CD94/NKG2A concentration 0.1 μM
  binding of peptide-HLA-E complex to CD94/NKG2A normalized to a fitted Rmax: 0.035
[4]; CD94/NKG2A concentration 0.2 μM
  binding of peptide-HLA-E complex to CD94/NKG2A normalized to a fitted Rmax: 0.068
[4]; CD94/NKG2A concentration 0.4 μM
  binding of peptide-HLA-E complex to CD94/NKG2A normalized to a fitted Rmax: 0.128
[4]; CD94/NKG2A concentration 0.8 μM
  binding of peptide-HLA-E complex to CD94/NKG2A normalized to a fitted Rmax: 0.221
[4]; CD94/NKG2A concentration 1.6 μM
  binding of peptide-HLA-E complex to CD94/NKG2A normalized to a fitted Rmax: 0.349
[4]; CD94/NKG2A concentration 3.2 μM
  binding of peptide-HLA-E complex to CD94/NKG2A normalized to a fitted Rmax: 0.506
[4]; CD94/NKG2A concentration 6.4 μM
  binding of peptide-HLA-E complex to CD94/NKG2A normalized to a fitted Rmax: 0.664
[4]; CD94/NKG2A concentration 12.8 μM
  binding of peptide-HLA-E complex to CD94/NKG2A normalized to a fitted Rmax: 0.798
[4]; CD94/NKG2A concentration 25.6 μM
  binding of peptide-HLA-E complex to CD94/NKG2A normalized to a fitted Rmax: 0.896
[4]; CD94/NKG2A concentration 51.2 μM
  binding of peptide-HLA-E complex to CD94/NKG2A normalized to a fitted Rmax: 0.950
[4]; CD94/NKG2A concentration 102.4 μM
  binding of peptide-HLA-E complex to CD94/NKG2A normalized to a fitted Rmax: 0.996
[4]; CD94/NKG2A analyte concentration 0.000 μM
  Binding of peptide-HLA-E complexes to CD94/NKG2A normalized to a theoretical Rmax: −0.005
[4]; CD94/NKG2A analyte concentration 0.100 μM
  Binding of peptide-HLA-E complexes to CD94/NKG2A normalized to a theoretical Rmax: 0.025
[4]; CD94/NKG2A analyte concentration 0.200 μM
  Binding of peptide-HLA-E complexes to CD94/NKG2A normalized to a theoretical Rmax: 0.049
[4]; CD94/NKG2A analyte concentration 0.400 μM
  Binding of peptide-HLA-E complexes to CD94/NKG2A normalized to a theoretical Rmax: 0.093
[4]; CD94/NKG2A analyte concentration 0.800 μM
  Binding of peptide-HLA-E complexes to CD94/NKG2A normalized to a theoretical Rmax: 0.160
[4]; CD94/NKG2A analyte concentration 1.600 μM
  Binding of peptide-HLA-E complexes to CD94/NKG2A normalized to a theoretical Rmax: 0.252
[4]; CD94/NKG2A analyte concentration 3.200 μM
  Binding of peptide-HLA-E complexes to CD94/NKG2A normalized to a theoretical Rmax: 0.365
[4]; CD94/NKG2A analyte concentration 6.400 μM
  Binding of peptide-HLA-E complexes to CD94/NKG2A normalized to a theoretical Rmax: 0.479
[4]; CD94/NKG2A analyte concentration 12.800 μM
  Binding of peptide-HLA-E complexes to CD94/NKG2A normalized to a theoretical Rmax: 0.577
[4]; CD94/NKG2A analyte concentration 25.600 μM
  Binding of peptide-HLA-E complexes to CD94/NKG2A normalized to a theoretical Rmax: 0.647
[4]; CD94/NKG2A analyte concentration 51.200 μM
  Binding of peptide-HLA-E complexes to CD94/NKG2A normalized to a theoretical Rmax: 0.686
[4]; CD94/NKG2A analyte concentration 102.400 μM
  Binding of peptide-HLA-E complexes to CD94/NKG2A normalized to a theoretical Rmax: 0.719
[5]; CD94/NKG2C concentration 0 μM
  binding of peptide-HLA-E complex to CD94/NKG2C normalized to a fitted Rmax: −0.007
[5]; CD94/NKG2C concentration 0.1 μM
  binding of peptide-HLA-E complex to CD94/NKG2C normalized to a fitted Rmax: 0.007
[5]; CD94/NKG2C concentration 0.2 μM
  binding of peptide-HLA-E complex to CD94/NKG2C normalized to a fitted Rmax: 0.017
[5]; CD94/NKG2C concentration 0.4 μM
  binding of peptide-HLA-E complex to CD94/NKG2C normalized to a fitted Rmax: 0.038
[5]; CD94/NKG2C concentration 0.8 μM
  binding of peptide-HLA-E complex to CD94/NKG2C normalized to a fitted Rmax: 0.076
[5]; CD94/NKG2C concentration 1.6 μM
  binding of peptide-HLA-E complex to CD94/NKG2C normalized to a fitted Rmax: 0.144
[5]; CD94/NKG2C concentration 3.2 μM
  binding of peptide-HLA-E complex to CD94/NKG2C normalized to a fitted Rmax: 0.246
[5]; CD94/NKG2C concentration 6.4 μM
  binding of peptide-HLA-E complex to CD94/NKG2C normalized to a fitted Rmax: 0.394
[5]; CD94/NKG2C concentration 12.8 μM
  binding of peptide-HLA-E complex to CD94/NKG2C normalized to a fitted Rmax: 0.564
[5]; CD94/NKG2C concentration 25.6 μM
  binding of peptide-HLA-E complex to CD94/NKG2C normalized to a fitted Rmax: 0.723
[5]; CD94/NKG2C concentration 51.2 μM
  binding of peptide-HLA-E complex to CD94/NKG2C normalized to a fitted Rmax: 0.832
[5]; CD94/NKG2C concentration 102.4 μM
  binding of peptide-HLA-E complex to CD94/NKG2C normalized to a fitted Rmax: 0.912
[5]; CD94/NKG2C analyte concentration 0 μM
  Binding of peptide-HLA-E complexes to CD94/NKG2C normalized to a theoretical Rmax: −0.004
[5]; CD94/NKG2C analyte concentration 0.1 μM
  Binding of peptide-HLA-E complexes to CD94/NKG2C normalized to a theoretical Rmax: 0.004
[5]; CD94/NKG2C analyte concentration 0.2 μM
  Binding of peptide-HLA-E complexes to CD94/NKG2C normalized to a theoretical Rmax: 0.010
[5]; CD94/NKG2C analyte concentration 0.4 μM
  Binding of peptide-HLA-E complexes to CD94/NKG2C normalized to a theoretical Rmax: 0.023
[5]; CD94/NKG2C analyte concentration 0.8 μM
  Binding of peptide-HLA-E complexes to CD94/NKG2C normalized to a theoretical Rmax: 0.047
[5]; CD94/NKG2C analyte concentration 1.6 μM
  Binding of peptide-HLA-E complexes to CD94/NKG2C normalized to a theoretical Rmax: 0.088
[5]; CD94/NKG2C analyte concentration 3.2 μM
  Binding of peptide-HLA-E complexes to CD94/NKG2C normalized to a theoretical Rmax: 0.151
[5]; CD94/NKG2C analyte concentration 6.4 μM
  Binding of peptide-HLA-E complexes to CD94/NKG2C normalized to a theoretical Rmax: 0.242
[5]; CD94/NKG2C analyte concentration 12.8 μM
  Binding of peptide-HLA-E complexes to CD94/NKG2C normalized to a theoretical Rmax: 0.346
[5]; CD94/NKG2C analyte concentration 25.6 μM
  Binding of peptide-HLA-E complexes to CD94/NKG2C normalized to a theoretical Rmax: 0.444
[5]; CD94/NKG2C analyte concentration 51.2 μM
  Binding of peptide-HLA-E complexes to CD94/NKG2C normalized to a theoretical Rmax: 0.511
[5]; CD94/NKG2C analyte concentration 102.4 μM
  Binding of peptide-HLA-E complexes to CD94/NKG2C normalized to a theoretical Rmax: 0.560
